Measured values taken from patent US20240317708A1, “INHIBITORS OF TRANSGLUTAMINASES” (ZEDIRA GMBH, priority 2021, published 2024).

Legend:
[1] = Log D shake flask method (octanol / PBS pH 7.4, HPLC); type: physicochemical; conditions: octanol/phosphate-buffered saline (PBS); octanol / PBS pH 7.4, shake flask
Method: In order to classify the inventive compounds according to their lipophilicity, Log D values (distribution coefficient) were determined by means of the well-established shake flask method, measuring the partition of a compound between an octanol and phosphate-buffered saline (PBS, pH 7.4) by HPLC.

[2] = Caco-2 permeability assay (CacoReady kit); type: in vitro ADME; conditions: human
Method: Permeability coefficients (Papp values) were obtained from Caco-2 barrier studies predicting oral/intestinal bioavailability of the tested compounds. The assays were performed by using CacoReady™ ready-to-use kits from ReadyCell according to the manufacturers protocol.

[3] = target: T1, recombinant human transglutaminase 2 (Homo sapiens, UniProt P21980); experiment: Transglutaminase assay (dansylcadaverine incorporation into dimethylcasein, DCC-assay); type: biochemical; conditions: recombinant human TG2 10 nM, dansylcadaverine/dimethylcasein, 37° C.
T1 construct: purchased Zedira T022
T1 sequence (P21980 1-687): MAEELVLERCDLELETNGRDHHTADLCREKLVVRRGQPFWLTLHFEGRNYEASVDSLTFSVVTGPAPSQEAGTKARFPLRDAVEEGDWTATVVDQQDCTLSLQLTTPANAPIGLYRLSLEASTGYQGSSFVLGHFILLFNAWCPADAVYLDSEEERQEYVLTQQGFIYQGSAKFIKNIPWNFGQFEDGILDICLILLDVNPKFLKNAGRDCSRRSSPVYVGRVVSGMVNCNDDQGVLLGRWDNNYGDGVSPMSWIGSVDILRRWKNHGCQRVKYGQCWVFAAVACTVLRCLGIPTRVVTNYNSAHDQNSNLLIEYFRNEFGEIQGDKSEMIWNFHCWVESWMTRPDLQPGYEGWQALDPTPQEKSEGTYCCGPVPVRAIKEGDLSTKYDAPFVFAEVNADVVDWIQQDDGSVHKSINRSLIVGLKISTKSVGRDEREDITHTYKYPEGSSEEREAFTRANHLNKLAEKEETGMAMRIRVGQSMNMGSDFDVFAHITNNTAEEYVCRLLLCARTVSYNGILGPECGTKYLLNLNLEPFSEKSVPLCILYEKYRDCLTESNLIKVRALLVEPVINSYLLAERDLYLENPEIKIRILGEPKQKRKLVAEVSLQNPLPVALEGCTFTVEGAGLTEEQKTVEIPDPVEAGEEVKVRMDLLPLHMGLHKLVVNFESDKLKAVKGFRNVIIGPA
Method: For the determination of potency of inhibitors against tissue transglutaminase, the incorporation of dansylcadaverine into dimethylcasein (Zedira product T036, Lorand et al., Anal Biochem, 1971, 44:221-31) was measured using recombinant human transglutaminase 2 (Zedira Product T022).
The tissue transglutaminase is diluted in buffer (50 mM Tris-HCl, 7.5 mM CaCl2, 150 mM NaCl, pH=7.4). The final concentration of TG2 in the assay is 10 nM.
A 10 mM inhibitor stock solution is prepared in DMSO, and from this a serial 1:2-fold dilution series is prepared also in DMSO. Each of the initial dilutions is subsequently diluted 1:50-fold with buffer (50 mM Tris-HCl, 7.5 mM CaCl2, 150 mM NaCl, pH=7.4) to yield the final working dilutions containing 2% (v/v) DMSO.
15 μl of inhibitor working dilution are added per well of a 96 well microtiter plate. As control, 15 μl of a 2% (v/v) DMSO solution prepared using the buffer mentioned above are added per well.
Immediately before starting the assay, 600 μl transglutaminase working solution are added to 11.4 ml assay buffer (50 mM Tris-HCl, 10 mM CaCl2, 10 mM glutathione, 2.5% glycerol, 16.7 μM dansylcadaverine, 4 μM N,N-dimethylcasein, 200 mM NaCl, pH=8.0). 285 μl of this reaction mix are added per well containing the inhibitor.
Increase in fluorescence is measured using λex=330 nm and λem=500 nm at 37° C. for 30 min. A slope of the increase in fluorescence between 20 and 30 min is calculated for determination of the IC50 value (inhibitor concentration at which 50% of the initial activity is blocked).
Analysis of enzymatic activity is performed by calculation of the slope of an increase in fluorescence intensity. IC50 values are calculated by plotting the enzymatic activity (as percentage from control containing 2% DMSO instead of inhibitor) against the inhibitor concentration. IC50 is defined as the inhibitor concentration blocking 50% of initial enzyme activity.

SMILES | logD [1] | Papp [2] | IC50 [3]
COC(=O)/C=C/CC[C@H](NC(=O)c1oc2ccccc2c1C)C(=O)Nc1cccn(CC(=O)NC(C)C23CC4CC(CC(C4)C2)C3)c1=O (stereo partly drawn) [III-57, (S,E)-methyl 7-(1-(2-(1-(1-adamantyl)ethanamino)-2-oxoethyl)-2-oxo-1,2-dihydropyridin-3-ylamino)-6-(3-methylbenzofuran-2-carboxamido)-7-oxohept-2-enoate] | 3 to 5 | 1 to 10 ×10⁻⁶ cm/s | 25 to 250 nM
COC(=O)/C=C/CC[C@H](NC(=O)c1oc2ccccc2c1C)C(=O)Nc1cccn(CC(=O)N[C@H]2C[C@H]3C[C@@H]([C@@H]2C)C3(C)C)c1=O [III-70, (S,E)-methyl 6-(3-methylbenzofuran-2-carboxamido)-7-oxo-7-(2-oxo-1-(2-oxo-2-((1S,2S,3S,5R)-2,6,6-trimethylbicyclo[3.1.1]heptan-3-ylamino)ethyl)-1,2-dihydropyridin-3-ylamino)hept-2-enoate] | 3 to 5 | 1 to 10 ×10⁻⁶ cm/s | < 25 nM
COC(=O)/C=C/CC[C@H](NC(=O)[C@@H]1CCCNC1)C(=O)Nc1cccn(CC(=O)NC2C3CC4CC(C3)CC2C4)c1=O (stereo partly drawn) [III-30, (S,E)-methyl 7-(1-(2-(2-adamantylamino)-2-oxoethyl)-2-oxo-1,2-dihydropyridin-3-ylamino)-7-oxo-6-((R)-piperidine-3-carboxamido)hept-2-enoate] | 3 to 5 | < 1 ×10⁻⁶ cm/s | 25 to 250 nM
C=CCNC(=O)/C=C/CC[C@H](NC(=O)c1nccc2cnccc12)C(=O)Nc1cccn(CC(=O)NC23CC(C2)C3)c1=O [III-151, (S,E)-N1-allyl-N7-(1-(2-(bicyclo[1.1.1]pentan-1-ylamino)-2-oxoethyl)-2-oxo-1,2-dihydropyridin-3-yl)-6-(2,6-naphthyridine-1-carboxamido)hept-2-enediamide] | < 1 | < 1 ×10⁻⁶ cm/s | 250 to 1500 nM
COC(=O)/C=C/CC[C@H](NC(=O)c1snnc1C)C(=O)Nc1cccn(CC(=O)NC2C3CC4CC(C3)CC2C4)c1=O (stereo partly drawn) [III-118, (S,E)-methyl 7-(1-(2-(2-adamantylamino)-2-oxoethyl)-2-oxo-1,2-dihydropyridin-3-ylamino)-6-(4-methyl-1,2,3-thiadiazole-5-carboxamido)-7-oxohept-2-enoate] | 1 to 3 | < 1 ×10⁻⁶ cm/s | < 25 nM
COC(=O)/C=C/CC[C@H](NC(=O)c1cc(Cl)sc1Cl)C(=O)Nc1cccn(CC(=O)N[C@H]2C[C@H]3CC[C@]2(C)C3(C)C)c1=O [III-128, (S,E)-methyl 6-(2,5-dichlorothiophene-3-carboxamido)-7-oxo-7-(2-oxo-1-(2-oxo-2-((1R,2S,4R)-1,7,7-trimethylbicyclo[2.2.1]heptan-2-ylamino)ethyl)-1,2-dihydropyridin-3-ylamino)hept-2-enoate] | 3 to 5 | 1 to 10 ×10⁻⁶ cm/s | < 25 nM
COC(=O)/C=C/CC[C@H](NC(=O)c1oc2ccccc2c1C)C(=O)Nc1cccn(CC(=O)N(C)C2C3CC4CC(C3)CC2C4)c1=O (stereo partly drawn) [III-37, (S,E)-methyl 7-(1-(2-(2-adamantyl(methyl)amino)-2-oxoethyl)-2-oxo-1,2-dihydropyridin-3-ylamino)-6-(3-methylbenzofuran-2-carboxamido)-7-oxohept-2-enoate] | 3 to 5 | 1 to 10 ×10⁻⁶ cm/s | 25 to 250 nM
COC(=O)/C=C/CC[C@H](NC(=O)c1cnsn1)C(=O)Nc1cccn(CC(=O)NC23CC(C2)C3)c1=O [III-173, (S,E)-methyl 7-(1-(2-(bicyclo[1.1.1]pentan-1-ylamino)-2-oxoethyl)-2-oxo-1,2-dihydropyridin-3-ylamino)-7-oxo-6-(1,2,5-thiadiazole-3-carboxamido)hept-2-enoate] | < 1 | < 1 ×10⁻⁶ cm/s | 25 to 250 nM
COC(=O)/C=C/CC[C@H](NC(=O)c1cc(Br)sc1Br)C(=O)Nc1cccn(CC(=O)NC2C3CC4CC(C3)CC2C4)c1=O (stereo partly drawn) [III-16, (S,E)-methyl 6-(2,5-dibromothiophene-3-carboxamido)-7-(1-(2-(2-adamantylamino)-2-oxoethyl)-2-oxo-1,2-dihydropyridin-3-ylamino)-7-oxohept-2-enoate] | 3 to 5 | 1 to 10 ×10⁻⁶ cm/s | < 25 nM
CCn1c(C(=O)N[C@@H](CC/C=C/C(=O)NC2CCCCC2)C(=O)Nc2cccn(CC(=O)NC34CC(C3)C4)c2=O)cc2ccccc21 [III-148, (S,E)-N7-(1-(2-(bicyclo[1.1.1]pentan-1-ylamino)-2-oxoethyl)-2-oxo-1,2-dihydropyridin-3-yl)-N1-cyclohexyl-6-(1-ethyl-1H-indole-2-carboxamido)hept-2-enediamide] | 3 to 5 | 1 to 10 ×10⁻⁶ cm/s | 25 to 250 nM
COC(=O)/C=C/CC[C@H](NC(=O)c1cccnn1)C(=O)Nc1cccn(CC(=O)NC2C3CC4CC(C3)CC2C4)c1=O (stereo partly drawn) [III-86, (S,E)-methyl 7-(1-(2-(2-adamantylamino)-2-oxoethyl)-2-oxo-1,2-dihydropyridin-3-ylamino)-7-oxo-6-(pyridazine-3-carboxamido)hept-2-enoate] | 1 to 3 | < 1 ×10⁻⁶ cm/s | < 25 nM
COC(=O)/C=C/CC[C@H](NC(=O)c1oc2ccccc2c1C)C(=O)Nc1cccn(CC(=O)N(C)C23CC4CC(CC(C4)C2)C3)c1=O [III-47, (S,E)-methyl 7-(1-(2-(1-adamantyl(methyl)amino)-2-oxoethyl)-2-oxo-1,2-dihydropyridin-3-ylamino)-6-(3-methylbenzofuran-2-carboxamido)-7-oxohept-2-enoate] | 3 to 5 | 1 to 10 ×10⁻⁶ cm/s | 250 to 1500 nM
COC(=O)/C=C/CC[C@H](NC(=O)c1cnnn1C)C(=O)Nc1cccn(CC(=O)NC23CC4(C)CC(C)(CC(C)(C4)C2)C3)c1=O [III-93, (S,E)-methyl 7-(1-(2-(3,5,7-trimethyl-1-adamantylamino)-2-oxoethyl)-2-oxo-1,2-dihydropyridin-3-ylamino)-6-(1-methyl-1H-1,2,3-triazole-5-carboxamido)-7-oxohept-2-enoate] | 1 to 3 | 1 to 10 ×10⁻⁶ cm/s | < 25 nM
COC(=O)/C=C/CC[C@H](NC(=O)c1cnccn1)C(=O)Nc1cccn(CC(=O)NC2C3CC4CC(C3)CC2C4)c1=O (stereo partly drawn) [III-24, (S,E)-methyl 7-(1-(2-(2-adamantylamino)-2-oxoethyl)-2-oxo-1,2-dihydropyridin-3-ylamino)-7-oxo-6-(pyrazine-2-carboxamido)hept-2-enoate] | 1 to 3 | < 1 ×10⁻⁶ cm/s | 25 to 250 nM
COC(=O)/C=C/CC[C@H](NC(=O)c1cccnc1)C(=O)Nc1cccn(CC(=O)NC2C3CC4CC(C3)CC2C4)c1=O (stereo partly drawn) [III-83, (S,E)-methyl 7-(1-(2-(2-adamantylamino)-2-oxoethyl)-2-oxo-1,2-dihydropyridin-3-ylamino)-6-(nicotinamido)-7-oxohept-2-enoate] | 3 to 5 | < 1 ×10⁻⁶ cm/s | < 25 nM
COC(=O)/C=C/CC[C@H](NC(=O)c1nc(C2(C)CC2)no1)C(=O)Nc1cccn(CC(=O)NC2C3CC4CC2CC(C(N)=O)(C4)C3)c1=O (stereo partly drawn) [III-167, (S,E)-methyl 7-(1-(2-(4-aminoadamantane-1-carboxamide)-2-oxoethyl)-2-oxo-1,2-dihydropyridin-3-ylamino)-6-(3-(1-methylcyclopropyl)-1,2,4-oxadiazole-5-carboxamido)-7-oxohept-2-enoate] | < 1 | < 1 ×10⁻⁶ cm/s | 250 to 1500 nM
